Experiments:
Assay type in all cases: in vivo
[1] = tested on: winter barley (Hordeum vulgare); assay: Test B postemergence plant response; conditions: for Barley plant response rating (0 to 100 scale): 0 is no effect
Summary of the method: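 Plants grown in peat/vermiculite medium were sprayed postemergence at 2–18 cm height (1- to 4-leaf stage). After 13–15 days in the greenhouse, response was rated visually against untreated controls on a 0–100 scale (0 no effect, 100 complete control).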

[2] = tested on: pigweed (Amaranthus retroflexus); assay: Test A pre-/postemergence plant response
Summary of the method: (§1)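 Each species was treated preemergence via directed soil spray and postemergence at the one- to two-leaf stage, with compounds formulated in a non-phytotoxic solvent plus surfactant. Visual injury relative to untreated controls was rated after about ten days on a 0–100 scale.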

[3] = tested on: giant foxtail (Setaria faberii); assay: Test A pre-/postemergence plant response
Summary of the method: as §1

corn (Zea mays) = assay: Test A pre-/postemergence plant response
Summary of the method: as §1

[4] = tested on: barnyardgrass (Echinochloa crus-galli); assay: Test A pre-/postemergence plant response
Summary of the method: as §1

[5] = tested on: velvetleaf (Abutilon theophrasti); assay: Test A pre-/postemergence plant response
Summary of the method: as §1

[6] = tested on: large crabgrass (Digitaria sanguinalis); assay: Test A pre-/postemergence plant response
Summary of the method: as §1

[7] = tested on: wheat (Triticum aestivum); assay: Test A pre-/postemergence plant response
Summary of the method: as §1

[8] = tested on: morningglory (Ipomoea spp.); assay: Test A pre-/postemergence plant response
Summary of the method: as §1

[9] = tested on: ducksalad (Heteranthera limosa); assay: Test B flooded paddy test; conditions: for Plant response rating, Flood, Ducksalad: 250 g ai/ha, flooded paddy test, visual rating on 0 to 100 scale (0 no effect, 100 complete control) after 13 to 15 days; for Plant response rating, Ducksalad: Flood (flooded paddy test), 13 to 15 days
Summary of the method: (§2)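 Post-flood paddy application: compounds are introduced into water 3 cm deep over the soil, reaching plants at the 2-leaf stage. The water level is maintained, and after 13–15 days under greenhouse conditions, response is judged by eye relative to controls, where 100 means complete control.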

[10] = tested on: umbrella sedge (Cyperus difformis); assay: Test B flooded paddy test; conditions: for Plant response rating, Flood, Sedge, Umbrella: 250 g ai/ha, flooded paddy test, visual rating on 0 to 100 scale (0 no effect, 100 complete control) after 13 to 15 days; for Plant response rating, Sedge, Umbrella: Flood (flooded paddy test), 13 to 15 days
Summary of the method: as §2

[11] = tested on: barnyardgrass (Echinochloa crus-galli); assay: Test B flooded paddy test; conditions: for Plant response rating, Flood, Barnyardgrass: 250 g ai/ha, flooded paddy test, visual rating on 0 to 100 scale (0 no effect, 100 complete control) after 13 to 15 days; for Plant response rating, Barnyardgrass: Flood (flooded paddy test), 13 to 15 days
Summary of the method: as §2

rice (Oryza sativa) = assay: Test B flooded paddy test; conditions: for Plant response rating, Flood, Rice: 250 g ai/ha, flooded paddy test, visual rating on 0 to 100 scale (0 no effect, 100 complete control) after 13 to 15 days; for Plant response rating, Rice: Flood (flooded paddy test), 13 to 15 days
Summary of the method: as §2

[12] = 62 g ai/ha, postemergence, 100 is complete control, 13 to 15 days
[13] = Postemergence, 125 g ai/ha, 0 to 100 scale where 0 is no effect and 100 is complete control
[14] = Postemergence, 500 g ai/ha, 0 to 100 scale, 0 = no effect, 100 = complete control, approx. ten days
[15] = Preemergence, 125 g ai/ha, 0 to 100 scale, 0 = no effect, 100 = complete control
[16] = Preemergence, 500 g ai/ha, visual injury, 0 to 100 scale (0 no effect, 100 complete control), approx. ten days
[17] = 62 g ai/ha, scale of 0 to 100 where 0 is no effect and 100 is complete control
[18] = 125 g ai/ha, scale 0 to 100, 0 is no effect, 100 is complete control
[19] = Flood, 31 g ai/ha, scale 0 to 100 (0 no effect, 100 complete control)
[20] = Postemergence, 125 g ai/ha, visual injury, 0 to 100 scale (0 no effect, 100 complete control), approx. ten days
[21] = 31 g ai/ha, scale of 0 to 100 where 0 is no effect and 100 is complete control
[22] = 62 g ai/ha, scale 0 to 100, 0 is no effect, 100 is complete control

SMILES: Cc1ccccc1-c1ncc(C(=O)C2=C(O)CCCC2=O)c(=O)n1-c1ccccc1 [Compound 82]
- Plant response rating, Barley ([1]; 31 g ai/ha, postemergence, scale 0 to 100, 0 is no effect, 100 is complete control): 0
- Barley plant response rating (0 to 100 scale) [1, 12]: 0
- Plant response rating, Barley ([1]; Postemergence, 125 g ai/ha, visual rating after 13 to 15 days, scale 0 (no effect) to 100 (complete control)): 0
- Plant response rating, Barley ([1]; Postemergence, 250 g ai/ha, scale 0 to 100 (0 no effect, 100 complete control)): 5
- Plant response rating, Pigweed [2, 13]: 90
- Plant response rating, Pigweed [2, 14]: 100
- Plant response rating, Pigweed [2, 15]: 90
- Plant response rating, Pigweed [2, 16]: 100
- Plant response rating, Foxtail, Giant [3, 13]: 10
- Plant response rating, Foxtail, Giant [3, 14]: 80
- Plant response rating, Foxtail, Giant [3, 15]: 10
- Plant response rating, Foxtail, Giant [3, 16]: 40
- Plant response rating, Corn (corn (Zea mays); [13]): 0
- Plant response rating, Corn (corn (Zea mays); [14]): 20
- Plant response rating, Corn (corn (Zea mays); [15]): 0
- Plant response rating, Corn (corn (Zea mays); [16]): 0
- Plant response rating, Barnyardgrass [4, 13]: 10
- Plant response rating, Barnyardgrass [4, 14]: 70
- Plant response rating, Barnyardgrass [4, 15]: 0
- Plant response rating, Barnyardgrass [4, 16]: 10
- Plant response rating, Velvetleaf [5, 13]: 100
- Plant response rating, Velvetleaf [5, 14]: 100
- Plant response rating, Velvetleaf [5, 15]: 50
- Plant response rating, Velvetleaf [5, 16]: 90
- Plant response rating, Crabgrass, Large [6, 13]: 40
- Plant response rating, Crabgrass, Large [6, 14]: 90
- Plant response rating, Crabgrass, Large [6, 16]: 100
- Plant response rating, Wheat [7, 13]: 0
- Plant response rating, Wheat [7, 14]: 0
- Plant response rating, Wheat [7, 15]: 0
- Plant response rating, Wheat [7, 16]: 0
- Plant response rating, Morningglory [8, 13]: 90
- Plant response rating, Morningglory [8, 14]: 100
- Plant response rating, Morningglory [8, 15]: 0
- Plant response rating, Morningglory [8, 16]: 60
- Plant response rating, Flood, Ducksalad [9]: 20
- Plant response rating, Ducksalad [9, 17]: 0
- Plant response rating, Ducksalad [9, 18]: 0
- Ducksalad plant response rating [9, 19]: 0
- Plant response rating, Flood, Sedge, Umbrella [10]: 50
- Plant response rating, Sedge, Umbrella [10, 17]: 0
- Plant response rating, Sedge, Umbrella [10, 18]: 40
- Sedge, Umbrella plant response rating [10, 19]: 0
- Plant response rating, Flood, Barnyardgrass [11]: 20
- Plant response rating, Barnyardgrass [11, 17]: 0
- Plant response rating, Barnyardgrass [11, 18]: 15
- Barnyardgrass plant response rating [11, 19]: 0
- Plant response rating, Flood, Rice (rice (Oryza sativa)): 20
- Plant response rating, Rice (rice (Oryza sativa); [17]): 0
- Plant response rating, Rice (rice (Oryza sativa); [18]): 15
- Rice plant response rating (rice (Oryza sativa); [19]): 0

SMILES: Cc1ccccc1-n1c(-c2ccccc2)ncc(C(=O)C2=C(O)CCCC2=O)c1=O [Compound 12]
- Plant response rating, Barley ([1]; Postemergence, 31 g ai/ha, scale 0 to 100 (0 no effect, 100 complete control)): 0
- Plant response rating, Barley ([1]; Postemergence, 62 g ai/ha, scale 0 (no effect) to 100 (complete control), 13 to 15 days): 0
- Plant response rating, Barley ([1]; Postemergence, 125 g ai/ha, scale 0 to 100 (0 no effect, 100 complete control), 13 to 15 days): 0
- Barley plant response rating ([1]; Postemergence, 250 g ai/ha, scale 0 to 100): 0
- Pigweed plant response rating [2, 20]: 100
- Plant response rating, Pigweed [2, 14]: 100
- Plant response rating, Pigweed [2, 15]: 80
- Plant response rating, Pigweed [2, 16]: 100
- Foxtail, Giant plant response rating [3, 20]: 90
- Plant response rating, Foxtail, Giant [3, 14]: 90
- Plant response rating, Foxtail, Giant [3, 15]: 20
- Plant response rating, Foxtail, Giant [3, 16]: 90
- Corn plant response rating (corn (Zea mays); [20]): 40
- Plant response rating, Corn (corn (Zea mays); [14]): 80
- Plant response rating, Corn (corn (Zea mays); [15]): 0
- Plant response rating, Corn (corn (Zea mays); [16]): 0
- Barnyardgrass plant response rating [4, 20]: 90
- Plant response rating, Barnyardgrass [4, 14]: 90
- Plant response rating, Barnyardgrass [4, 15]: 10
- Plant response rating, Barnyardgrass [4, 16]: 70
- Velvetleaf plant response rating [5, 20]: 100
- Plant response rating, Velvetleaf [5, 14]: 100
- Plant response rating, Velvetleaf [5, 15]: 70
- Plant response rating, Velvetleaf [5, 16]: 90
- Crabgrass, Large plant response rating [6, 20]: 90
- Plant response rating, Crabgrass, Large [6, 14]: 100
- Plant response rating, Crabgrass, Large [6, 15]: 50
- Plant response rating, Crabgrass, Large [6, 16]: 90
- Wheat plant response rating [7, 20]: 0
- Plant response rating, Wheat [7, 14]: 0
- Plant response rating, Wheat [7, 15]: 0
- Plant response rating, Wheat [7, 16]: 0
- Morningglory plant response rating [8, 20]: 100
- Plant response rating, Morningglory [8, 14]: 100
- Plant response rating, Morningglory [8, 15]: 30
- Plant response rating, Morningglory [8, 16]: 90
- Plant response rating, Flood, Ducksalad [9]: 55
- Plant response rating, Ducksalad [9, 21]: 0
- Plant response rating, Ducksalad [9, 22]: 25
- Plant response rating, Ducksalad [9, 18]: 35
- Plant response rating, Flood, Sedge, Umbrella [10]: 65
- Plant response rating, Sedge, Umbrella [10, 21]: 20
- Plant response rating, Sedge, Umbrella [10, 22]: 40
- Plant response rating, Sedge, Umbrella [10, 18]: 50
- Plant response rating, Flood, Barnyardgrass [11]: 0
- Plant response rating, Barnyardgrass [11, 21]: 0
- Plant response rating, Barnyardgrass [11, 22]: 0
- Plant response rating, Barnyardgrass [11, 18]: 0
- Plant response rating, Flood, Rice (rice (Oryza sativa)): 0
- Plant response rating, Rice (rice (Oryza sativa); [21]): 0
- Plant response rating, Rice (rice (Oryza sativa); [22]): 0
- Plant response rating, Rice (rice (Oryza sativa); [18]): 0

SMILES: CCCn1c(-c2cccc(Br)c2)ncc(C(=O)C2=C(O)CCCC2=O)c1=O [Compound 141]
- Barley plant response rating (0 to 100 scale) [1, 12]: 0
- Plant response rating, Barley ([1]; Postemergence, 31 g ai/ha, 0 to 100 scale (0 no effect, 100 complete control)): 0
- Plant response rating, Barley ([1]; Postemergence, 125 g ai/ha, scale 0 to 100 (0 no effect, 100 complete control)): 5
- Plant response rating, Barley ([1]; Postemergence, 250 g ai/ha, scale 0 to 100 (0 no effect, 100 complete control), 13 to 15 days): 5
- Plant response rating, Pigweed [2, 13]: 90
- Plant response rating, Pigweed [2, 14]: 100
- Plant response rating, Pigweed [2, 15]: 70
- Plant response rating, Pigweed [2, 16]: 100
- Plant response rating, Foxtail, Giant [3, 13]: 80
- Plant response rating, Foxtail, Giant [3, 14]: 90
- Plant response rating, Foxtail, Giant [3, 15]: 40
- Plant response rating, Foxtail, Giant [3, 16]: 80
- Plant response rating, Corn (corn (Zea mays); [13]): 20
- Plant response rating, Corn (corn (Zea mays); [14]): 30
- Plant response rating, Corn (corn (Zea mays); [15]): 0
- Plant response rating, Corn (corn (Zea mays); [16]): 0
- Plant response rating, Barnyardgrass [4, 13]: 90
- Plant response rating, Barnyardgrass [4, 14]: 90
- Plant response rating, Barnyardgrass [4, 15]: 60
- Plant response rating, Barnyardgrass [4, 16]: 100
- Plant response rating, Velvetleaf [5, 13]: 100
- Plant response rating, Velvetleaf [5, 14]: 100
- Plant response rating, Velvetleaf [5, 15]: 70
- Plant response rating, Velvetleaf [5, 16]: 100
- Plant response rating, Crabgrass, Large [6, 13]: 80
- Plant response rating, Crabgrass, Large [6, 14]: 90
- Plant response rating, Crabgrass, Large [6, 15]: 80
- Plant response rating, Crabgrass, Large [6, 16]: 100
- Plant response rating, Wheat [7, 13]: 0
- Plant response rating, Wheat [7, 14]: 0
- Plant response rating, Wheat [7, 15]: 0
- Plant response rating, Wheat [7, 16]: 0
- Plant response rating, Morningglory [8, 13]: 70
- Plant response rating, Morningglory [8, 14]: 100
- Plant response rating, Morningglory [8, 15]: 0
- Plant response rating, Morningglory [8, 16]: 30
- Plant response rating, Flood, Ducksalad [9]: 85
- Plant response rating, Ducksalad [9, 17]: 75
- Plant response rating, Flood, Sedge, Umbrella [10]: 85
- Plant response rating, Sedge, Umbrella [10, 17]: 80
- Plant response rating, Flood, Barnyardgrass [11]: 50
- Plant response rating, Barnyardgrass [11, 17]: 20
- Plant response rating, Flood, Rice (rice (Oryza sativa)): 35
- Plant response rating, Rice (rice (Oryza sativa); [17]): 0

From patent US8952024B2, “Herbicidal pyrimidone derivatives” (E I du Pont de Nemours and Company, priority 2009, dated 2015)
